From PMC4797285 (Nucleic Acids Research, 2016)

What was measured:
[1] = system: ribosome on the mRNA (PURExpress in vitro protein synthesis kit); test: Toe-printing assay; format: biochemical; settings: for Position of ribosome stalling in toe-print: 100 μM thiostrepton, 50 μM clindamycin
[2] = system: ribosomes translating 2XErmBL mRNA (RTS 100 E. coli HY Kit); test: Disome formation assay; format: biochemical, Escherichia coli; settings: 20 μM erythromycin, positive control

Molecule	Position of ribosome stalling in toe-print [1]	also measured
CCC[C@@H]1C[C@@H](C(=O)N[C@@H]([C@H]2O[C@H](SC)[C@H](O)[C@@H](O)[C@H]2O)[C@H](C)Cl)N(C)C1 [clindamycin]	ribosomes accumulated at the AUG codon	
CC[C@H]1OC(=O)[C@H](C)[C@@H](O[C@H]2C[C@@](C)(OC)[C@@H](O)[C@H](C)O2)[C@H](C)[C@@H](O[C@@H]2O[C@H](C)C[C@H](N(C)C)[C@H]2O)[C@](C)(O)C[C@@H](C)C(=O)[C@H](C)[C@@H](O)[C@]1(C)O [erythromycin]		Disome formation (translation arrest) [2]: generating the expected disome peaks
C=C(NC(=O)C(=C)NC(=O)c1csc(C2=N[C@@H]3c4csc(n4)[C@H]4NC(=O)c5csc(n5)[C@H]([C@](C)(O)[C@@H](C)O)NC(=O)[C@H]5CSC(=N5)/C(=C/C)NC(=O)[C@H]([C@@H](C)O)NC(=O)c5csc(n5)[C@]3(CC2)NC(=O)[C@H](C)NC(=O)C(=C)NC(=O)[C@H](C)NC(=O)[C@H]([C@@H](C)CC)N[C@@H]2C=Cc3c([C@H](C)O)cc(nc3[C@H]2O)C(=O)O[C@@H]4C)n1)C(N)=O [thiostrepton]	ribosomes accumulated at the AUG codon	
RRIRPRPPRLPRPRPR [Bac7(1–16)]		Toeprint for ribosomes stalled during initiation ([1]; 100 μM peptide, signal for full-length mRNA became stronger, similar to edeine): became weaker
